# Source: patent publication US5424442A, “Water-soluble methine compounds useful in photographic silver halide emulsion containing the same” (Fuji Photo Film Co., Ltd., priority 1990, dated 1995)
# “And” between values parts separate entries of the source, which are not always exact repeats. Equal entries are not always repeated. Where two headings read alike, the source gives them in different places.
# Columns and labels:
# [1] = Solubility in solvents (dissolution in incubator, filtration through microfilter, visible absorption); assay type: physicochemical; details: for Solubility in MeOH / Solubility in H2O: 720 min
# From the text: The solubility of some of the compounds within formula (I) was accurately measured.
# The measurement of solubility was made in the following manner.
# [2] = Spectral sensitization of photographic silver halide emulsion; design: Yellow filter sensitivity (SY) / Red filter sensitivity (SR): scale not given here; details: for Maximum Sensitization: spectrogram, tungsten light source of 2666° K.; for Yellow filter sensitivity (SY): yellow filter SC-50, 5 seconds exposure
# Description: A silver halide emulsion comprising pure silver bromide and having a cubic crystal form (the area ratio of the plane to the entire surface area of grain being 92%) was prepared and subjected to a sulfur sensitization treatment. The average diameter of silver halide grains contained in the emulsion was 0.68 μm, and 0.74 mol of silver halide per kg of emulsion was contained in the emulsion. One kg of the emulsion was weighed in each of pots. An aqueous solution of each of the compounds of formula (I) indicated in Tables 4 and 5 was added to the pot, and the mixture was mixed with stirring at 40° C. For the purpose of comparison, comparative compounds 1 and 2 wherein counter ion was iodide were dispersed in water and added to respective pots.
# Further, 4-hydroxy-6-methyl-1,3,3a,7-tetraazaindene in an amount of 0.1 g/kg of emulsion, sodium salt of 2,4-dichloro-6-hydroxy-1,3,5-triazine in an amount of 0.1 g/kg of emulsion and sodium dodecylbenzenesulfonate in an amount of 0.1 g/kg of emulsion in order were added thereto. The emulsion was then coated on a polyethylene terephthalate film to obtain a photographic material.
# Each of these samples was exposed through an optical wedge for 5 seconds by using a yellow filter (SC-50, a product of Fuji Photo Film Co., Ltd.) or a red filter (SC-60, a product of Fuji Photo Film Co., Ltd.) and tungsten light (5400° K.).
# A spectrogram was obtained by using a grating spectrograph having a tungsten light source of 2666° K., and the maximum sensitization was measured.
# After exposure, the samples were developed at 20° C for 4 minutes by using the following developing solution. The density of each of the developed films was measured by using a densitometer (manufactured by Fuji Photo Film Co., Ltd. Spectral sensitivity, that is, yellow filter sensitivity (SY) or red filter sensitivity (SR), sensitivity (SB) in the sensitive region inherent in silver halide, and fog were determined. Sensitivity was determined when the standard point of optical density was referred to as (Fog+0.2). Composition of Developing Solution […]
# Two volumes of water were added thereto to obtain a working solution when used.
# [3] = water, Table 3, read-out: Solubility in Water
# [4] = MeOH, 37° C., 12 hours, Table 2
# [5] = water, H2O, 37° C., 12 hours, Table 2, read-out: Solubility in H2O
# [6] = standard point Fog+0.2, Table 4
# [7] = MeOH, 37° C., 12 hours, Table 1
structure (smiles),measurement,setting,value
CCN1C(=CC=c2sc(=Cc3cc[n+](C)c4ccccc34)n(C)c2=O)N(CC)c2ccccc21 [Compound 104],solubility at 12 h,[1]; [3],4100 µg/mL
CCn1c(=Cc2sc3cc(C)c(C)cc3[n+]2CC)sc(=C2Sc3ccccc3N2C)c1=O [Compound 110],Solubility in MeOH,[1]; [4],> 10000 µg/mL
same,solubility at 12 h,[1]; [5],1700 µg/mL
CCn1c(=Cc2sc3cc(C)c(C)cc3[n+]2CC)sc(=C2Sc3ccc(OC)cc3N2C)c1=O [Compound 111],Maximum Sensitization,[2]; Table 4,540 nm
same,Yellow filter sensitivity (SY),[2]; [6],2085
CCn1c(=Cc2sc3ccccc3[n+]2C)sc(=C2Oc3ccc4ccccc4c3N2C)c1=O [Compound 127],solubility at 12 h,[1]; [3],5700 µg/mL
CCn1c(=Cc2oc3ccccc3[n+]2CC)sc(=C2Sc3ccccc3N2C)c1=O [Compound 128],Solubility in H2O,"[1]; H2O, 37° C., 12 hours, Table 2",> 10000 µg/mL
same,Solubility in MeOH,[1]; [4],> 10000 µg/mL
CCn1c(=Cc2oc3ccc(-c4ccccc4)cc3[n+]2CC)sc(=C2Sc3ccccc3N2C)c1=O [Compound 133],Maximum Sensitization,[2]; Table 4,520 nm
same,Yellow filter sensitivity (SY),[2]; [6],1620
CCn1c(=CC2=[N+](CC)CCS2)sc(=C2Sc3ccccc3N2C)c1=O [Compound 142],Maximum Sensitization,[2]; Table 4,495 nm
same,Yellow filter sensitivity (SY),[2]; [6],300
CN1C(=c2sc(=Cc3cc[n+](C)cc3)n(C)c2=O)Sc2ccccc21 [Compound 145],solubility at 12 h,[1]; [3],8800 µg/mL
CCn1c(=Cc2sc3ccccc3[n+]2CC)sc(=C2C=Cc3ccccc3N2C)c1=O [Compound 147],solubility at 12 h,[1]; [3],8100 µg/mL
CCn1c(=CC2=CC(=Cc3sc4ccccc4[n+]3CC)CC(C)(C)C2)sc(=C2Sc3ccccc3N2C)c1=O [Compound 148],solubility at 12 h,[1]; [3],3200 µg/mL
CCn1c(=CC2=CC(=Cc3sc4cc(C)c(C)cc4[n+]3CC)CC(C)(C)C2)sc(=C2Sc3ccccc3N2C)c1=O [Compound 151],Red filter sensitivity (SR),"[2]; red filter SC-60, 5 seconds exposure, standard point Fog+0.2, Table 5",1535
same,Maximum Sensitization,[2]; Table 5,750 nm
CCN1C(=CC=c2sc(=CC3=CC(=Cc4sc5cc(C)c(C)cc5[n+]4CC)Oc4ccccc43)n(CC)c2=O)Sc2ccccc21 [Compound 153],solubility at 12 h,[1]; [3],1400 µg/mL
CCn1c(=C2CCC[n+]3c2sc2ccccc23)sc(=C2Sc3ccccc3N2C)c1=O [Compound 156],solubility at 12 h,[1]; [3],3700 µg/mL
"CCN1C(C)=CSC1=CC=c1sc(=Cc2sc3ccccc3[n+]2CC)n(CC)c1=O [Compound A, reference compound]",Solubility in H2O,"[1]; H2O, 37° C., 12 hours",170 µM
same,Solubility in H2O,"[1]; H2O, 37° C., 12 hours, Table 1",100 µg/mL
same,Solubility in MeOH,"[1]; MeOH, 37° C., 12 hours",1110 µM
same,Solubility in MeOH,[1]; [7],650 µg/mL
same,solubility at 12 h,"[1]; dmso, organic solvent or mixture, DMSO, 37° C., 12 hours, read-out: Solubility in DMSO",20000 µM and 11700 µg/mL
"CCn1c(=Cc2oc3ccccc3[n+]2CC)sc(=C2Sc3ccccc3N2C)c1=O [Compound D, reference compound]",Solubility in H2O,"[1]; H2O, 37° C., 12 hours, Table 2",200 µg/mL
same,Solubility in MeOH,[1]; [4],2000 µg/mL
"CCN1C(=CC=c2sc(=Cc3sc4c5ccccc5ccc4[n+]3CC)n(CC)c2=O)Sc2ccc3ccccc3c21 [Compound E, reference compound]",Solubility in MeOH,"[1]; MeOH, 37° C., 12 hours",30 µM
same,Solubility in MeOH,[1]; [7],30 µg/mL
"CCn1c(=Cc2sc3cc(C)c(C)cc3[n+]2CC)sc(=C2Sc3ccccc3N2C)c1=O [drawing 127, reference compound]",Solubility in MeOH,[1]; [4],100 µg/mL
"CCn1c(=Cc2oc3c4ccccc4ccc3[n+]2CC)sc(=C2Sc3ccccc3N2C)c1=O [drawing 128, reference compound]",Solubility in MeOH,[1]; [4],150 µg/mL
CCN1C(=CC=c2sc(=Cc3cc[n+](CC)c4ccccc34)n(CC)c2=O)C=Cc2ccccc21 [reference compound],solubility at 12 h,"[1]; methanol, organic solvent or mixture, MeOH, 37° C., 12 hours, Table 2, read-out: Solubility in MeOH",2800 µg/mL
same,solubility at 12 h,[1]; [5],300 µg/mL
